Reference: patent US11236129B2, “IL-17A binding peptides and medical uses thereof” (Dompe' Farmaceutici S.P.A., priority 2018, dated 2022)
Like-named read-outs stand apart in the source and are kept apart here. Residues, ends and D or L forms follow the SMILES beside them.

What was measured:
[1] = assay type: physicochemical; conditions: pH 7.8
Method: Each lyophilized peptide was weighed in an amber vial. A calculated volume of phosphate buffered solution at pH 7.8 was added in order to directly obtain 10 mM Stock Solutions. The recovered suspensions were stirred for 30 minutes by orbital shaker incubator at 37° C. Subsequent dilutions were performed to obtain the more diluted stock solutions for the less soluble compounds.
In order to evaluate the stability and the solubility, all the stock solutions were stored at 25° C. The title was evaluated by UHPLC-MS analysis in comparison with the standard solutions, at 3 time points: T0, 3 days, 1 week.
The chromatographic profile was evaluated for the quantitative assay while the MS spectra were detected as support in the stability studies.
Each peptide was weighed and directly diluted at 100 μM with the phosphate buffer at pH 7.8. The solutions were stirred for 5 minutes by vortex and heated at 37° C. for 20 minutes. The obtained standard solution was stored at 25° C. in the dark under controlled temperature.
A portion of the stock solutions was collected in an amber vial and diluted to 100 μM by phosphate buffer at pH 7.8 (dilution factor, 1:100).
Reversed-phase UHPLC was performed operating at a flow rate of 0.3 ml/min with a Luna Omega Polar C18 column ([…] 1.6 μm, 2.1×100 mm). Solvent A was 0.5% Formic Acid in water and solvent B was 0.5% Formic Acid in acetonitrile. First, samples were loaded onto the column and washed isocratically at 10% B for 3 min. Then, a gradient of 10-95% B was run over 22 min, held at 95% for 2 min, and then decreased to 10% over 1 min and held, for the pressure stabilization, for 5 min. UV Absorption was monitored by DAD (220-400 nm). ESI-MS ion trap was used for the monitoring of TIC.

[2] = Isoelectric point, log D and log P (SiriusT3); assay type: physicochemical; conditions: for IP (isoelectric point): 25±1° C., 0.15 M KCl; for logD: pH 7.4, pH 7.4, octanol/ISA water, read-out: Log D (7.4)
Method: The main physicochemical properties (Isoelectric point (IP), log D (7.4) and log P) of the peptides of Table 8 below were determined by using the SiriusT3 apparatus (Sirius Analytical Instruments Ltd., East Sussex, UK) equipped with an Ag/AgCl double junction reference pH electrode, a Sirius D-PAS spectrometer and a turbidity sensing device. […] An overhead stirrer was used and a temperature probe (Peltier controller) monitored the temperature during the course of the titration. The titration experiments were conducted in 0.15 M KCl Ionic Strength Adjusted solution (ISA water) under a nitrogen atmosphere at a temperature of 25±1° C. All tests were performed using standardized 0.5 M KOH and 0.5 M HCl as titration reagents, for the partition coefficient tests a saturated Octanol in ISA water (5% of ISA water) was used as partition solvent. The pKas were determined by potentiometric method by pH-metric titration. The powder (around 0.5 mg) was dissolved in 1.5 ml of ISA water and the titration was performed in triplicate in the pH range 2.0−12.0.

[3] = target: IL-17RA/IL17RC dimerization induced by IL-17A (Homo sapiens, UniProt Q16552); experiment: IL-17RA/IL17RC dimerization assay in response to IL-17A (PathHunter Cytokine Receptor Assay); assay type: cell-based; conditions: IL-17A at EC80; read-out: IC50 in IL-17RA/IL7RC dimerization assay
How it was run: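 Receptor dimerization was read as chemiluminescence from complemented β-galactosidase after IL-17A at EC80 concentration for 6–16 h at 37 °C. Peptides were added 60 min before agonist, at 37 °C or room temperature, with 1% vehicle. Percent inhibition used the EC80-stimulated and vehicle wells as references.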

[4] = octanol/ISA water, read-out: logP

Sequence of IL-17RA/IL17RC dimerization induced by IL-17A (Q16552 24-155): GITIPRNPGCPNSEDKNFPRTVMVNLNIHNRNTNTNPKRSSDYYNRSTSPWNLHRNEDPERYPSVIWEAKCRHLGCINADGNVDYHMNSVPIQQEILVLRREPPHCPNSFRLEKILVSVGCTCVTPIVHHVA

| SMILES | solubility [1] | IP (isoelectric point) [2] | logP [2, 4] | logD [2] | IC50 [3] | logP [2] | Log D (7.4) ([2]; pH 7.4) |
| --- | --- | --- | --- | --- | --- | --- | --- |
| CC[C@H](C)[C@H](NC(=O)[C@H](Cc1c[nH]c2ccccc12)NC(=O)[C@H](CCC(=O)O)NC(=O)[C@H](Cc1ccc(O)cc1)NC(=O)[C@H](CC(C)C)NC(=O)[C@H](CC(=O)O)NC(=O)[C@H](C)NC(=O)[C@@H]1CCCN1C(=O)[C@@H](NC(=O)[C@@H](NC(=O)[C@@H](NC(=O)[C@H](CCSC)NC(=O)[C@@H](NC(C)=O)C(C)C)C(C)C)[C@@H](C)O)[C@@H](C)CC)C(=O)N[C@@H](CCC(=O)O)C(=O)N[C@@H](CCC(=O)O)C(=O)NCC(=O)NCC(=O)N[C@H](C(=O)N[C@@H](Cc1c[nH]c2ccccc12)C(=O)N[C@@H](Cc1c[nH]c2ccccc12)C(=O)N[C@H](C(=O)N[C@@H](CCC(=O)O)C(=O)N[C@@H](Cc1c[nH]c2ccccc12)C(=O)N[C@@H](CO)C(=O)N[C@@H](CCC(N)=O)C(N)=O)[C@@H](C)O)[C@@H](C)O [SEQ ID NO: 22] (Ac-VMVTIPADLYEWIEEGGTWWTEWSQ-NH2) | > 10 mM | 4.26 | 0.4 | -3.18 | < 1000 nM |  |  |
| CC[C@H](C)[C@H](NC(=O)[C@H](Cc1c[nH]c2ccccc12)NC(=O)[C@H](CCC(=O)O)NC(=O)[C@H](Cc1ccc(O)cc1)NC(=O)[C@H](CC(C)C)NC(=O)[C@H](CC(=O)O)NC(=O)[C@H](C)NC(=O)[C@@H]1CCCN1C(=O)[C@@H](NC(=O)[C@@H](NC(=O)[C@@H](NC(=O)[C@H](CCSC)NC(=O)[C@@H](NC(C)=O)C(C)C)C(C)C)[C@@H](C)O)[C@@H](C)CC)C(=O)N[C@@H](CCC(=O)O)C(=O)N[C@@H](CCC(=O)O)C(=O)N[C@H](C(=O)N[C@@H](Cc1c[nH]c2ccccc12)C(=O)N[C@@H](Cc1c[nH]c2ccccc12)C(=O)N[C@@H](CCC(=O)O)C(=O)N[C@H](C(=O)N[C@@H](Cc1c[nH]c2ccccc12)C(=O)N[C@@H](Cc1c[nH]c2ccccc12)C(N)=O)[C@@H](C)O)[C@@H](C)O [SEQ ID NO: 23] (Ac-VMVTIPADLYEWIEETWWETWW-NH2) | ≥ 0.05 mM | 4.26 | 1.01 | -2.24 | < 1000 nM |  |  |
| CC[C@H](C)[C@H](NC(=O)[C@H](Cc1c[nH]c2ccccc12)NC(=O)[C@H](CCC(=O)O)NC(=O)[C@H](Cc1ccc(O)cc1)NC(=O)[C@H](CC(C)C)NC(=O)[C@H](CC(=O)O)NC(=O)[C@H](C)NC(=O)[C@@H]1CCCN1C(=O)[C@@H](NC(=O)[C@@H](NC(=O)[C@@H](NC(=O)[C@H](CCSC)NC(=O)[C@@H](NC(C)=O)C(C)C)C(C)C)[C@@H](C)O)[C@@H](C)CC)C(=O)N[C@@H](CCC(=O)O)C(=O)N[C@@H](CCC(=O)O)C(=O)N[C@H](C(=O)N1CCC[C@H]1C(=O)NCC(=O)N[C@@H](Cc1c[nH]c2ccccc12)C(=O)NCC(N)=O)C(C)C [SEQ ID NO: 24] (Ac-VMVTIPADLYEWIEEVPGWG-NH2) | < 0.05 mM | 5.14 | 2.45 | 2.15 | < 1000 nM |  |  |
| CC[C@H](C)[C@H](NC(=O)[C@H](Cc1c[nH]c2ccccc12)NC(=O)[C@H](CCC(=O)O)NC(=O)[C@H](Cc1ccc(O)cc1)NC(=O)[C@H](CC(C)C)NC(=O)[C@H](CC(=O)O)NC(=O)[C@H](C)NC(=O)[C@@H]1CCCN1C(=O)[C@@H](NC(=O)[C@@H](NC(=O)[C@@H](NC(=O)[C@H](CCSC)NC(=O)[C@@H](NC(C)=O)C(C)C)C(C)C)[C@@H](C)O)[C@@H](C)CC)C(=O)N[C@@H](CCC(=O)O)C(=O)N[C@@H](CCC(=O)O)C(=O)NCC(=O)NCC(=O)N[C@@H](CCCCN)C(=O)N[C@@H](CCC(=O)O)C(=O)N[C@H](C(=O)N[C@@H](Cc1c[nH]c2ccccc12)C(=O)N[C@@H](Cc1c[nH]c2ccccc12)C(=O)N[C@@H](CCC(=O)O)C(=O)N[C@H](C(=O)N[C@@H](Cc1c[nH]c2ccccc12)C(N)=O)[C@@H](C)O)[C@@H](C)O [SEQ ID NO: 25] (Ac-VMVTIPADLYEWIEEGGKETWWETW-NH2) | ≥ 0.1 mM | 4.66 | 0.4 | -5.64 | < 1000 nM |  |  |
| CC[C@H](C)[C@H](NC(=O)[C@H](Cc1c[nH]c2ccccc12)NC(=O)[C@H](CCC(=O)O)NC(=O)[C@H](Cc1ccc(O)cc1)NC(=O)[C@H](CC(C)C)NC(=O)[C@H](CC(=O)O)NC(=O)[C@H](C)NC(=O)[C@@H]1CCCN1C(=O)[C@@H](NC(=O)[C@@H](NC(=O)[C@@H](NC(=O)[C@H](CCSC)NC(=O)[C@@H](NC(C)=O)C(C)C)C(C)C)[C@@H](C)O)[C@@H](C)CC)C(=O)N[C@@H](CCC(=O)O)C(=O)N[C@@H](CCC(=O)O)C(=O)N[C@H](C(=O)N1CCC[C@H]1C(=O)NCC(=O)N[C@@H](CCCCN)C(=O)NCC(N)=O)C(C)C [SEQ ID NO: 26] (Ac-VMVTIPADLYEWIEEVPGKG-NH2) | > 10 mM | 8.13 | 0.69 | 0.148 | < 1000 nM |  |  |
| CC[C@H](C)[C@H](NC(=O)[C@H](Cc1c[nH]c2ccccc12)NC(=O)[C@H](CCC(=O)O)NC(=O)[C@H](Cc1ccc(O)cc1)NC(=O)[C@H](CC(C)C)NC(=O)[C@H](CC(=O)O)NC(=O)[C@H](C)NC(=O)[C@@H]1CCCN1C(=O)[C@@H](NC(=O)[C@@H](NC(=O)[C@@H](NC(=O)[C@H](CCSC)NC(=O)[C@@H](NC(C)=O)C(C)C)C(C)C)[C@@H](C)O)[C@@H](C)CC)C(=O)N[C@@H](CCC(=O)O)C(=O)N[C@@H](CCC(=O)O)C(=O)N[C@H](C(=O)N1CCC[C@H]1C(=O)NCC(=O)N[C@@H](C)C(=O)NCC(N)=O)C(C)C [SEQ ID NO: 27] (Ac-VMVTIPADLYEWIEEVPGAG-NH2) | > 10 mM | 5.14 | 0.69 | 0.148 | < 1000 nM |  |  |
| CC[C@H](C)[C@H](NC(=O)[C@H](Cc1c[nH]c2ccccc12)NC(=O)[C@H](CCC(=O)O)NC(=O)[C@H](Cc1ccc(O)cc1)NC(=O)[C@H](CC(C)C)NC(=O)[C@H](CC(=O)O)NC(=O)[C@H](C)NC(=O)[C@@H]1CCCN1C(=O)[C@@H](NC(=O)[C@@H](NC(=O)[C@@H](NC(=O)[C@H](CCSC)NC(=O)[C@@H](NC(C)=O)C(C)C)C(C)C)[C@@H](C)O)[C@@H](C)CC)C(=O)N[C@@H](CCC(=O)O)C(=O)N[C@@H](CCC(=O)O)C(=O)N[C@@H](CCCNC(=N)N)C(=O)N[C@@H](CCC(N)=O)C(=O)N[C@H](C(=O)N[C@@H](CCCCN)C(=O)N[C@H](C(=O)N[C@@H](Cc1c[nH]c2ccccc12)C(=O)N[C@@H](Cc1ccccc1)C(=O)N[C@@H](CCC(N)=O)C(=O)N[C@@H](CC(N)=O)C(=O)N[C@@H](CCCNC(=N)N)C(=O)N[C@@H](CCCNC(=N)N)C(=O)N[C@@H](CCSC)C(=O)N[C@@H](CCCCN)C(=O)N[C@@H](Cc1c[nH]c2ccccc12)C(=O)N[C@@H](CCCCN)C(=O)N[C@@H](CCCCN)C(N)=O)[C@@H](C)CC)[C@@H](C)CC [SEQ ID NO: 28] (Ac-VMVTIPADLYEWIEERQIKIWFQNRRMKWKK-NH2) | ≥ 0.1 mM | 12.25 |  |  | < 1000 nM | −6.36 | −6.44 |
| CC[C@H](C)[C@H](NC(=O)[C@H](Cc1c[nH]c2ccccc12)NC(=O)[C@H](CCC(=O)O)NC(=O)[C@H](Cc1ccc(O)cc1)NC(=O)[C@H](CC(C)C)NC(=O)[C@H](CC(=O)O)NC(=O)[C@H](C)NC(=O)[C@@H]1CCCN1C(=O)[C@@H](NC(=O)[C@@H](NC(=O)[C@@H](NC(=O)[C@H](CCSC)NC(=O)[C@@H](NC(=O)[C@H](CCCNC(=N)N)NC(=O)[C@H](CCCNC(=N)N)NC(=O)[C@H](CCCNC(=N)N)NC(=O)[C@H](CCCNC(=N)N)NC(=O)[C@H](CCCNC(=N)N)NC(=O)[C@H](CCCNC(=N)N)NC(=O)[C@H](CCCNC(=N)N)NC(=O)[C@H](CCCNC(=N)N)NC(C)=O)C(C)C)C(C)C)[C@@H](C)O)[C@@H](C)CC)C(=O)N[C@@H](CCC(=O)O)C(=O)N[C@@H](CCC(=O)O)C(N)=O [SEQ ID NO: 29] (Ac-RRRRRRRRVMVTIPADLYEWIEE-NH2) | > 10 mM | 12.25 |  |  | < 1000 nM |  |  |
